According to PubChem BioAssay AID1845217 (Molecular Pharmacology Branch, DTP, NCI, 2023):

Tested on: VA-ES-BJ tumor spheroid viability
Assay: Anticancer human tumor VA-ES-BJ cell line growth inhibition;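 note: spheroids exposed to compounds for seven days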;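 for viability, T/C: percent of DMSO vehicle control viability so 100% = untreated growth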
Conditions: spheroids with HUVEC and MSC; for IC50: curve of first compound; for viability, T/C: stronger effect = lower value; active = viability on the fitted dose curve at most 10% of control; inactive = the rest
How it was run: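 Complex spheroids of malignant cells with endothelial cells and mesenchymal stem cells; agents alone or combined, from near clinical Cmax (or 10 microM if unknown) down in half-log steps, 0.25% DMSO final.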

[1] = second compound 30 pM, first compound 0.0316 µM
[2] = second compound 30 pM, first compound 0.1 µM
[3] = second compound 30 pM, first compound 0.316 µM
[4] = second compound 30 pM, first compound 1 µM
[5] = second compound 30 pM, first compound 3.16 µM
[6] = second compound 30 pM, first compound 10 µM
[7] = second compound 94.9 pM, first compound 0.0316 µM
[8] = second compound 94.9 pM, first compound 0.1 µM
[9] = second compound 94.9 pM, first compound 0.316 µM
[10] = second compound 94.9 pM, first compound 1 µM
[11] = second compound 94.9 pM, first compound 3.16 µM
[12] = second compound 94.9 pM, first compound 10 µM
[13] = second compound 0.0003 µM, first compound 0.0316 µM
[14] = second compound 0.0003 µM, first compound 0.1 µM
[15] = second compound 0.0003 µM, first compound 0.316 µM
[16] = second compound 0.0003 µM, first compound 1 µM
[17] = second compound 0.0003 µM, first compound 3.16 µM
[18] = second compound 0.0003 µM, first compound 10 µM
[19] = second compound 0.000949 µM, first compound 0.0316 µM
[20] = second compound 0.000949 µM, first compound 0.1 µM
[21] = second compound 0.000949 µM, first compound 0.316 µM
[22] = second compound 0.000949 µM, first compound 1 µM
[23] = second compound 0.000949 µM, first compound 3.16 µM
[24] = second compound 0.000949 µM, first compound 10 µM
[25] = second compound 0.003 µM, first compound 0.0316 µM
[26] = second compound 0.003 µM, first compound 0.1 µM
[27] = second compound 0.003 µM, first compound 0.316 µM
[28] = second compound 0.003 µM, first compound 1 µM
[29] = second compound 0.003 µM, first compound 3.16 µM
[30] = second compound 0.003 µM, first compound 10 µM

CC(C)n1c(=O)n(C)c2cnc3cc(F)c(-c4ccc(OCCCN5CCCCC5)nc4)cc3c21 + COc1cc2c(cc1O)CCNC21CSC2c3c(OC(C)=O)c(C)c4c(c3C(COC1=O)N1C(O)C3Cc5cc(C)c(OC)c(O)c5C(C21)N3C)OCO4
inactive: viability, T/C [1] 76.2% | viability, T/C [2] 76.6% | viability, T/C [3] 75.2% | viability, T/C [4] 81% | viability, T/C [5] 79.1% | viability, T/C [6] 26% | viability, T/C [7] 50.3% | viability, T/C [8] 45.4% | viability, T/C [9] 46.6% | viability, T/C [10] 54.1% | viability, T/C [11] 47.8% | viability, T/C [12] 28.6% | viability, T/C [13] 25.9% | viability, T/C [14] 25.1% | viability, T/C [15] 30.5% | viability, T/C [16] 31.5% | viability, T/C [17] 19.7% | viability, T/C [18] 13.2%
5850 nM: IC50 (second compound 30 pM)
active: viability, T/C [19] 1.74% | viability, T/C [20] 1.58% | viability, T/C [21] 1.8% | viability, T/C [22] 1.79% | viability, T/C [23] 1.02% | viability, T/C [24] 1.02% | viability, T/C [25] 1.5% | viability, T/C [26] 1.42% | viability, T/C [27] 1.59% | viability, T/C [28] 0.72% | viability, T/C [29] 0.45% | viability, T/C [30] 0.56%
< 31.6 nM: IC50 (second compound 94.9 pM) | IC50 (second compound 0.0003 µM) | IC50 (second compound 0.000949 µM) | IC50 (second compound 0.003 µM)

COc1ccc([C@@H](O)c2cc(-c3ncnc4cc(N5CCOCC5)ccc34)c(F)cc2Cl)nn1 + COc1cc2c(cc1O)CCNC21CSC2c3c(OC(C)=O)c(C)c4c(c3C(COC1=O)N1C(O)C3Cc5cc(C)c(OC)c(O)c5C(C21)N3C)OCO4
102 nM: IC50 (second compound 0.0003 µM)
inactive: viability, T/C [1] 124% | viability, T/C [2] 112% | viability, T/C [3] 90.3% | viability, T/C [4] 43.8% | viability, T/C [5] 15.9% | viability, T/C [7] 111% | viability, T/C [8] 108% | viability, T/C [9] 64.1% | viability, T/C [10] 29.1% | viability, T/C [11] 15% | viability, T/C [12] 11.4% | viability, T/C [13] 59.6% | viability, T/C [14] 51.3% | viability, T/C [15] 30.5% | viability, T/C [16] 14%
510 nM: IC50 (second compound 94.9 pM)
active: viability, T/C [6] 10.5% | viability, T/C [17] 3.86% | viability, T/C [18] 0.36% | viability, T/C [19] 3.29% | viability, T/C [20] 3.11% | viability, T/C [21] 1.76% | viability, T/C [22] 0.36% | viability, T/C [23] 1.07% | viability, T/C [24] 2.57% | viability, T/C [25] 2.08% | viability, T/C [26] 3.06% | viability, T/C [27] 2.71% | viability, T/C [28] 4.43% | viability, T/C [29] 5.13% | viability, T/C [30] 6.09%
< 31.6 nM: IC50 (second compound 0.000949 µM) | IC50 (second compound 0.003 µM)
857 nM: IC50 (second compound 30 pM)

O=C(c1cc(Cc2n[nH]c(=O)c3ccccc23)ccc1F)N1CCN(C(=O)C2CC2)CC1 + Cn1nnc2c(C(N)=O)ncn2c1=O
active: viability, T/C (second compound 31.6 µM, first compound 30 µM) 8.16% | viability, T/C (second compound 100 µM, first compound 9.49 µM) 7.74% | viability, T/C (second compound 100 µM, first compound 30 µM) 6.29%
25400 nM: IC50 (second compound 3.16 µM)
inactive: viability, T/C (second compound 1 µM, first compound 0.0949 µM) 114% | viability, T/C (second compound 1 µM, first compound 0.3 µM) 110% | viability, T/C (second compound 1 µM, first compound 0.949 µM) 111% | viability, T/C (second compound 1 µM, first compound 3 µM) 110% | viability, T/C (second compound 1 µM, first compound 9.49 µM) 75% | viability, T/C (second compound 1 µM, first compound 30 µM) 58.5% | viability, T/C (second compound 3.16 µM, first compound 0.0949 µM) 103% | viability, T/C (second compound 3.16 µM, first compound 0.3 µM) 110% | viability, T/C (second compound 3.16 µM, first compound 0.949 µM) 96.8% | viability, T/C (second compound 3.16 µM, first compound 3 µM) 106% | viability, T/C (second compound 3.16 µM, first compound 9.49 µM) 78.8% | viability, T/C (second compound 3.16 µM, first compound 30 µM) 45.2% | viability, T/C (second compound 10 µM, first compound 0.0949 µM) 110% | viability, T/C (second compound 10 µM, first compound 0.3 µM) 113% | viability, T/C (second compound 10 µM, first compound 0.949 µM) 111% | viability, T/C (second compound 10 µM, first compound 3 µM) 87.4% | viability, T/C (second compound 10 µM, first compound 9.49 µM) 51.9% | viability, T/C (second compound 10 µM, first compound 30 µM) 17% | viability, T/C (second compound 31.6 µM, first compound 0.0949 µM) 102% | viability, T/C (second compound 31.6 µM, first compound 0.3 µM) 112% | viability, T/C (second compound 31.6 µM, first compound 0.949 µM) 100% | viability, T/C (second compound 31.6 µM, first compound 3 µM) 54% | viability, T/C (second compound 31.6 µM, first compound 9.49 µM) 16.8% | viability, T/C (second compound 100 µM, first compound 0.0949 µM) 77% | viability, T/C (second compound 100 µM, first compound 0.3 µM) 72% | viability, T/C (second compound 100 µM, first compound 0.949 µM) 40% | viability, T/C (second compound 100 µM, first compound 3 µM) 15.7%
> 30000 nM: IC50 (second compound 1 µM)
669 nM: IC50 (second compound 100 µM)
3430 nM: IC50 (second compound 31.6 µM)
9760 nM: IC50 (second compound 10 µM)
